# Test system: 253994-281-T-J1-PDC KRAS-mutant spheroids with HUVEC/MSC, viability
# Assay: Anticancer human tumor 253994-281-T-J1-PDC patient-derived colorectal carcinoma cell line growth inhibition [KRAS2]
# Details: for IC50: curve of first compound; for viability, T/C: stronger effect = lower value
# Outline: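 Combination screen of spheroid viability in tumor-cell co-cultures with endothelial (HUVEC) and mesenchymal stem cell stroma. Each agent was tested in half-log dilutions, topping at clinical Cmax or at 10 microM without a known Cmax.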
# [1] = second compound 0.1 µM, first compound 0.01 µM
# [2] = second compound 0.1 µM, first compound 0.0316 µM
# [3] = second compound 0.1 µM, first compound 0.1 µM
# [4] = second compound 0.1 µM, first compound 0.316 µM
# [5] = second compound 0.1 µM, first compound 1 µM
# [6] = second compound 0.1 µM, first compound 3.16 µM
# [7] = second compound 0.316 µM, first compound 0.01 µM
# [8] = second compound 0.316 µM, first compound 0.0316 µM
# [9] = second compound 0.316 µM, first compound 0.1 µM
# [10] = second compound 0.316 µM, first compound 0.316 µM
# [11] = second compound 0.316 µM, first compound 1 µM
# [12] = second compound 0.316 µM, first compound 3.16 µM
# [13] = second compound 1 µM, first compound 0.01 µM
# [14] = second compound 1 µM, first compound 0.0316 µM
# [15] = second compound 1 µM, first compound 0.1 µM
# [16] = second compound 1 µM, first compound 0.316 µM
# [17] = second compound 1 µM, first compound 1 µM
# [18] = second compound 1 µM, first compound 3.16 µM
# [19] = second compound 3.16 µM, first compound 0.01 µM
# [20] = second compound 3.16 µM, first compound 0.0316 µM
# [21] = second compound 3.16 µM, first compound 0.1 µM
# [22] = second compound 3.16 µM, first compound 0.316 µM
# [23] = second compound 3.16 µM, first compound 1 µM
# [24] = second compound 3.16 µM, first compound 3.16 µM
# [25] = second compound 10 µM, first compound 0.01 µM
# [26] = second compound 10 µM, first compound 0.0316 µM
# [27] = second compound 10 µM, first compound 0.1 µM
# [28] = second compound 10 µM, first compound 0.316 µM
# [29] = second compound 10 µM, first compound 1 µM
# [30] = second compound 10 µM, first compound 3.16 µM
# [31] = second compound 0.1 µM, first compound 10 µM
# [32] = second compound 0.316 µM, first compound 10 µM
# [33] = second compound 1 µM, first compound 10 µM
# [34] = second compound 3.16 µM, first compound 10 µM
# [35] = second compound 10 µM, first compound 10 µM
# 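Further: spheroids exposed to agents for seven days before readout.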
# 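Wherever viability, T/C is given: percent of DMSO vehicle control viability.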
SMILES,IC50 (second compound 0.1 µM),IC50 (second compound 0.316 µM),IC50 (second compound 1 µM),IC50 (second compound 3.16 µM),IC50 (second compound 10 µM),"viability, T/C [2]","viability, T/C [3]","viability, T/C [4]","viability, T/C [5]","viability, T/C [6]","viability, T/C [8]","viability, T/C [9]","viability, T/C [10]","viability, T/C [11]","viability, T/C [12]","viability, T/C [14]","viability, T/C [15]","viability, T/C [16]","viability, T/C [17]","viability, T/C [18]",also measured
CC1COCCN1c1cc(-c2ccnn2C)c2ccnc(-c3ccn[nH]3)c2n1 (stereo not given) + CC1OCC2(CCN(c3cnc(Sc4ccnc(N)c4Cl)c(N)n3)CC2)C1N,280 nM,141 nM,116 nM,49.7 nM,< 10 nM,81.8%,62.9%,44%,47%,53.1%,83%,55.4%,33.3%,36.4%,43.6%,70.4%,52.8%,30.9%,27.6%,38%,"viability, T/C [1]: 87%; viability, T/C [7]: 87.5%; viability, T/C [13]: 75.2%; viability, T/C [19]: 59.5%; viability, T/C [20]: 58.9%; viability, T/C [21]: 35.8%; viability, T/C [22]: 24.1%; viability, T/C [23]: 24.3%; viability, T/C [24]: 28.2%; viability, T/C [25]: 43%; viability, T/C [26]: 53.4%; viability, T/C [27]: 25.1%; viability, T/C [28]: 16.7%; viability, T/C [29]: 18.9%; viability, T/C [30]: 23.6%"
CCNC(=O)CC1N=C(c2ccc(Cl)cc2)c2cc(OC)ccc2-n2c(C)nnc21 (stereo not given) + CC1OCC2(CCN(c3cnc(Sc4ccnc(N)c4Cl)c(N)n3)CC2)C1N,> 10000 nM,> 10000 nM,3860 nM,648 nM,63.7 nM,90.4%,100%,86.5%,82%,74.2%,85.2%,81.3%,75.5%,65%,74%,80%,79.9%,79%,64.1%,54.6%,"viability, T/C [31]: 67%; viability, T/C [32]: 65%; viability, T/C [33]: 35.1%; viability, T/C [20]: 61.5%; viability, T/C [21]: 78%; viability, T/C [22]: 61.5%; viability, T/C [23]: 40.9%; viability, T/C [24]: 34.9%; viability, T/C [34]: 23.1%; viability, T/C [26]: 52.8%; viability, T/C [27]: 47.6%; viability, T/C [28]: 43.5%; viability, T/C [29]: 36.4%; viability, T/C [30]: 26.6%; viability, T/C [35]: 16.5%"
Cn1nccc1Nc1nccc(-c2cc3c(s2)C(C)(C)N(CCN2CCOCC2)C3=O)n1 + CC1OCC2(CCN(c3cnc(Sc4ccnc(N)c4Cl)c(N)n3)CC2)C1N,1460 nM,745 nM,280 nM,110 nM,< 31.6 nM,81.1%,82.9%,74.9%,59%,32.3%,77%,79.2%,63.1%,45.6%,26%,68.3%,64.6%,48.3%,22.5%,13.2%,"viability, T/C [31]: 18.9%; viability, T/C [32]: 17.9%; viability, T/C [33]: 15%; viability, T/C [20]: 60.8%; viability, T/C [21]: 50.2%; viability, T/C [22]: 34.8%; viability, T/C [23]: 15.3%; viability, T/C [24]: 10%; viability, T/C [34]: 8.2%; viability, T/C [26]: 39.8%; viability, T/C [27]: 28.4%; viability, T/C [28]: 15.4%; viability, T/C [29]: 8.1%; viability, T/C [30]: 4.83%; viability, T/C [35]: 6.14%"
CC(=O)OC12COC1CC(O)C1(C)C(=O)C(O)C3=C(C)C(OC(=O)C(O)C(NC(=O)OC(C)(C)C)c4ccccc4)CC(O)(C(OC(=O)c4ccccc4)C21)C3(C)C (stereo not given) + CNCc1ccccc1-c1csc(C(C)Nc2nc(C)nc3cc(OC)c(OC)cc23)c1,17.8 nM,12.9 nM,27.5 nM,< 10 nM,< 10 nM,31.9%,26.6%,24.7%,27.1%,25.2%,30.1%,23.1%,24%,26%,23.6%,46.6%,26.6%,25.6%,24.4%,27%,"viability, T/C [1]: 68.3%; viability, T/C [7]: 55.8%; viability, T/C [13]: 74.8%; viability, T/C [19]: 0.31%; viability, T/C [20]: 45.6%; viability, T/C [21]: 5.64%; viability, T/C [22]: 0.12%; viability, T/C [23]: 6.77%; viability, T/C [24]: 27.2%; viability, T/C [25]: 0.17%; viability, T/C [26]: 0.19%; viability, T/C [27]: 0.16%; viability, T/C [28]: 0.15%; viability, T/C [29]: 0.17%; viability, T/C [30]: 0.21%"

# From PubChem BioAssay AID1963874 (Molecular Pharmacology Branch, DTP, NCI, 2024)
